Test results taken from ChEMBL document CHEMBL1201862, “PubChem BioAssay data set” (2004).
“And” between values parts separate entries of the source, which are not always exact repeats. Identical values can stand only once. The source made the active and inactive calls.

How the values were obtained:
[1] = target: T1, Tyrosine-protein phosphatase non-receptor type 11 (Homo sapiens, UniProt Q06124); experiment: PTPN11 enzyme inhibitors – biochemical, selectivity assay for STEP inhibitor project, dose response (AID 602367); assay type: functional; conditions: read-out: IC50_Mean
T1 sequence (Q06124 whole entry): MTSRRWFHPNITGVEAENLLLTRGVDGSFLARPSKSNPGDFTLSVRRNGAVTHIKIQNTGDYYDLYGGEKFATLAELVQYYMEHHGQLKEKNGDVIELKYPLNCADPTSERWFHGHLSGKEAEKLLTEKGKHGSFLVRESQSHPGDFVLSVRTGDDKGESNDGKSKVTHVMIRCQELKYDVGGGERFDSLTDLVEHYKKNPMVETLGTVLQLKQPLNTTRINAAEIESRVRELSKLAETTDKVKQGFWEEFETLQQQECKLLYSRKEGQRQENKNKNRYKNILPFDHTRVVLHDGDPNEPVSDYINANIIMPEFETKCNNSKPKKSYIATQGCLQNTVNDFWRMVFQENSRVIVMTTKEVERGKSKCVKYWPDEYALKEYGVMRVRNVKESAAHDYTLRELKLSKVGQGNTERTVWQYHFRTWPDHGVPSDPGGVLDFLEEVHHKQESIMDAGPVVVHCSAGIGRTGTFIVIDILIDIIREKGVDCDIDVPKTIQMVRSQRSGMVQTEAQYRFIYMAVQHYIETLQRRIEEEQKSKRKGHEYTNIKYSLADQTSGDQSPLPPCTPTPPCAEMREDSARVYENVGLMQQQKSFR

Vero = experiment: viability of Vero cells under compound – cytotoxicity control for flavivirus capping enzyme inhibitors (AID 588742); assay type: functional; conditions: Chlorocebus sabaeus
[2] = target: Mothers against decapentaplegic homolog 3 (Homo sapiens, UniProt P84022); experiment: inhibitors of SMAD-driven TGF-beta signaling – dose response (AID 715); assay type: functional
[3] = target: T2, Zinc finger protein mex-5 (Caenorhabditis elegans, UniProt Q9XUB2); experiment: potency of MEX-5 RNA-binding blockers – biochemical, C. elegans, fluorescence polarization, dose response (AID 1960)
T2 sequence (Q9XUB2 whole entry): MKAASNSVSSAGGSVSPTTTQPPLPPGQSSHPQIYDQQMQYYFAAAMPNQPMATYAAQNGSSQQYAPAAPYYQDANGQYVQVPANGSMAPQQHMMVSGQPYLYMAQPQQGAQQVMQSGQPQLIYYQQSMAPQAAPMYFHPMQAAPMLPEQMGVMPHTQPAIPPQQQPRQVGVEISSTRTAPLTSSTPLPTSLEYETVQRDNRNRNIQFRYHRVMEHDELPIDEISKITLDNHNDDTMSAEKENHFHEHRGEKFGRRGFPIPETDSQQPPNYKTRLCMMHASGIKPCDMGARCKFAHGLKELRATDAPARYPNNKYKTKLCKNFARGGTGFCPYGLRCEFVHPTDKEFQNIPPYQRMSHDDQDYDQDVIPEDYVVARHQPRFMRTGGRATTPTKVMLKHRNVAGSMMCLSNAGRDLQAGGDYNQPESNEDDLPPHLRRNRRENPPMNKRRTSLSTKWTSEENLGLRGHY

Troponin, cardiac muscle = Troponin, cardiac muscle (Homo sapiens, UniProt P19429+P45379+P63316); experiment: Fluorescence-based biochemical high throughput dose response assay for activators of the calcium sensitivity of cardiac Regulated Thin Filaments (RTF). [Related pubchem assays (depositor defined):AID493008, AID493018, AID504382, AID504383]; assay type: protein-complex assay
[4] = target: Melanin-concentrating hormone receptor 1 (Homo sapiens, UniProt Q99705); experiment: Fluorescence-based counterscreen for antagonists of the G-protein coupled receptor 7 (GPR7): cell-based high throughput dose response assay to identify antagonists of the melanin-concentrating hormone receptor 1 (MCHR1).; assay type: functional
[5] = DRD fibroblast viability loss – cell-based, non-viral oncogenic, luminescence, dose response (AID 1934); assay type: functional; conditions: Homo sapiens
[6] = target: Heat shock protein HSP 90-alpha (Homo sapiens, UniProt P07900); assay type: functional, organism-based
[7] = target: Envelope glycoprotein gp160 (Human immunodeficiency virus 1, UniProt Q6QLK5); experiment: cell-free HIV fusion peptide-binding blockers – biochemical, uHTS, fluorescence dequenching, […] (AID 1986)
[8] = target: T3, Tyrosine-protein phosphatase non-receptor type 22 (Homo sapiens, UniProt Q9Y2R2); experiment: PTPN22 lymphoid phosphatase activity blockers – biochemical, fluorescence intensity, uHTS (AID 1779)
T3 sequence (Q9Y2R2 whole entry): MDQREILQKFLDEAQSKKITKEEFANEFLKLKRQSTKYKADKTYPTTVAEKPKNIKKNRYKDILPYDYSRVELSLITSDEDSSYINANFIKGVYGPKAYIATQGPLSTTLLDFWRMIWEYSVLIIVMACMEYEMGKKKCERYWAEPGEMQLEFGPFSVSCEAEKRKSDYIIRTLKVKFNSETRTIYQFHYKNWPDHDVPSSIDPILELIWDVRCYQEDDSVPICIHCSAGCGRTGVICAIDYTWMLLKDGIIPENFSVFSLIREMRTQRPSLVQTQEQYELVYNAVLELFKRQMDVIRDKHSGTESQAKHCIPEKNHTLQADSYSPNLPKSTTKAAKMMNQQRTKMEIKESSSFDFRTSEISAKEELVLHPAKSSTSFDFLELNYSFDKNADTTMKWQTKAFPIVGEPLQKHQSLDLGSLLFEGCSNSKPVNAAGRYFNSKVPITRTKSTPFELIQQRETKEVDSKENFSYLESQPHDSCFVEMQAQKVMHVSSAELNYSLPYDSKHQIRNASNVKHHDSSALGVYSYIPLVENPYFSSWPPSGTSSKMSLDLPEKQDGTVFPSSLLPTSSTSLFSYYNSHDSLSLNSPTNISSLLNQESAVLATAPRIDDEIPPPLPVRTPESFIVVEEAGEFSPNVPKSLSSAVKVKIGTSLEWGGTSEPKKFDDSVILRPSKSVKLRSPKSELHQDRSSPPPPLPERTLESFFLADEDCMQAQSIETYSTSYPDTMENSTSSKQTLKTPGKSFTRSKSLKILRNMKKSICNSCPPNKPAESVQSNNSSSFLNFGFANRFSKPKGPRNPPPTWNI

[9] = target: T3, Tyrosine-protein phosphatase non-receptor type 22; experiment: SAR LYP1 Fluorescent Assay using OMFP substrate for In Vitro dose response studies - Set 3. [Related pubchem assays (depositor defined):AID1779, AID1784, AID2140, AID2686]; assay type: functional
[10] = target: T3, Tyrosine-protein phosphatase non-receptor type 22; experiment: PubChem AID 2135

Question: With `CSc1ccc(C=NNc2ccc(S(=O)(=O)Nc3ccccc3C(=O)O)cc2[N+](=O)[O-])cc1` as the compound, how does the IC50 [1] read?
Answer: The IC50 was 1110 nM (active).

Question: Which CC50 (Vero) does the source give for `Cc1oc2c(c1C(=O)c1ccccc1)C(=O)C(=O)c1ccccc1-2` here?
Answer: Its CC50 is 6370 nM (active).

Question: Which IC50 [2] does the source give for `O=C1CCCC2=C1C1(O)C(=O)c3ccccc3C1(O)O2` (stereo not drawn) here?
Answer: Its IC50 is 2730 nM (active).

Question: With `Nc1ccc2nc3c(O)nc(S)nc3nc2c1` as the compound, how does the EC50 [3] read?
Answer: The EC50 was 1670 nM (inconclusive).

Question: What about the EC50 (Troponin, cardiac muscle) of the same compound?
Answer: Its EC50 is 1140 nM (active).

Question: Which IC50 [4] does the source give for `CCN1/C(=C/c2ccc3cc(C)ccc3[n+]2CC)Sc2cc(C)c(C)cc21` here?
Answer: Its IC50 is > 4870 nM (active).

Question: What about the EC50 [5] of the same compound?
Answer: Its EC50 is 1430 nM (active).

Question: And the AC50 [6]?
Answer: Its AC50 is 4.16 µM (active) and 2.67 µM (active).

Question: What about the EC50 (cells) of the same compound?
Answer: Its EC50 is 46 nM (active).

Question: What does the source list for `O=C(O)COc1ccc(/C=N/NC(=O)c2ccc(-c3csc(Nc4ccc(Cl)cc4)n3)cc2)cc1`?
Answer: IC50 [7]: 15000 nM (active); IC50 [8]: > 99000 nM (inactive); IC50 [9]: 626 nM (active); IC50 [10]: 113 nM (active)
